The source of these data is ChEMBL document CHEMBL5244230, “Artemisinin-derived hybrids and their anticancer activity” (Eur J Med Chem, 2020).

Holding throughout (type): functional, cell-based
One assay deals with HT-29. The experiment in a line: Antiproliferative activity against human HT-29 cells assessed as reduction in cell viability measured for 72 hrs by MTT assay. The following applies: HT-29, 72 h.
The next assay relates to MDA-MB-231. Description: Antiproliferative activity against human MDA-MB-231 cells assessed as reduction in cell viability measured for 72 hrs by MTT assay. The following applies: MDA-MB-231, 72 h.
Another assay concerns A549. Description: Antiproliferative activity against human A549 cells assessed as reduction in cell viability measured for 72 hrs by MTT assay. The conditions noted are these: A549, 72 h. For orientation: Formazan colour is commonly taken as a measure of viable cells.
For another assay, the system named is NCI-H460. The experiment in a line: Antiproliferative activity against human NCI-H460 cells assessed as reduction in cell viability measured for 72 hrs by MTT assay. The following applies: NCI-H460, 72 h.
A further assay concerns HeLa. Description: Antiproliferative activity against human HeLa cells assessed as reduction in cell viability measured for 72 hrs by MTT assay.

Usually IC50 stands for the point on the concentration scale where inhibition reaches its midpoint. Consider `COc1cccc(/C=C/C(=O)c2ccc(COCC(=O)N[C@H]3O[C@@H]4O[C@@]5(C)CC[C@H]6[C@H](C)CC[C@@H]([C@H]3C)[C@@]46OO5)cc2)c1`, for which the concentration for half-maximal inhibition (IC50) in the assay on HT-29, in the assay on MDA-MB-231, in the assay with A549, in the assay with NCI-H460 and with HeLa was 90 nM in each case.
As for `C[C@H]1[C@H](NC(=O)COCc2ccc(C(=O)/C=C/c3ccc(Cl)cc3F)cc2)O[C@@H]2O[C@@]3(C)CC[C@H]4[C@H](C)CC[C@@H]1[C@@]24OO3`, the IC50 in the assay with HT-29, in the assay with MDA-MB-231, in the assay on A549, with NCI-H460 and in the assay with HeLa was 100 nM throughout.
For `C[C@H]1[C@H](NC(=O)COCc2ccc(C(=O)/C=C/c3cccc(Cl)c3Cl)cc2)O[C@@H]2O[C@@]3(C)CC[C@H]4[C@H](C)CC[C@@H]1[C@@]24OO3`, the 50% inhibitory concentration (IC50) in the assay with HT-29, with MDA-MB-231, in the assay on A549, in the assay with NCI-H460 and in the assay on HeLa was 100 nM throughout.
In the case of `C[C@H]1[C@@H](NC(=O)COCc2ccc(C(=O)/C=C/c3c(Cl)cccc3Cl)cc2)O[C@@H]2O[C@@]3(C)CC[C@H]4[C@H](C)CC[C@@H]1[C@@]24OO3`, the IC50 in the assay on HT-29, with MDA-MB-231, with A549, in the assay with NCI-H460 and in the assay with HeLa was 90 nM each time.
For `COc1ccc(OC)c(/C=C/C(=O)c2ccc(COCC(=O)N[C@@H]3O[C@@H]4O[C@@]5(C)CC[C@H]6[C@H](C)CC[C@@H]([C@H]3C)[C@@]46OO5)cc2)c1`, the IC50 with HT-29, with MDA-MB-231, with A549, with NCI-H460 and in the assay with HeLa was 100 nM in each case.
On to `C[C@H]1[C@H](NC(=O)COCc2ccc(C(=O)/C=C/c3ccccc3F)cc2)O[C@@H]2O[C@@]3(C)CC[C@H]4[C@H](C)CC[C@@H]1[C@@]24OO3`, for which the 50% inhibitory concentration (IC50) in the assay with HT-29, in the assay with MDA-MB-231, in the assay on A549, with NCI-H460 and in the assay with HeLa was 100 nM in each case.
As for `C[C@H]1[C@H](NC(=O)COCc2ccc(C(=O)/C=C/c3ccc(OC(F)(F)F)cc3)cc2)O[C@@H]2O[C@@]3(C)CC[C@H]4[C@H](C)CC[C@@H]1[C@@]24OO3`, the IC50 in the assay on HT-29, in the assay on MDA-MB-231, with A549, in the assay on NCI-H460 and with HeLa was 100 nM throughout.
Regarding `C[C@H]1[C@@H](NC(=O)COCc2ccc(C(=O)/C=C/c3ccc(Cl)cc3F)cc2)O[C@@H]2O[C@@]3(C)CC[C@H]4[C@H](C)CC[C@@H]1[C@@]24OO3`, the IC50 with HT-29, in the assay with MDA-MB-231, in the assay with A549, in the assay with NCI-H460 and in the assay on HeLa was 90 nM in each case.
Turning to `C[C@H]1[C@@H](NC(=O)COCc2ccc(C(=O)/C=C/c3ccc(F)c(F)c3)cc2)O[C@@H]2O[C@@]3(C)CC[C@H]4[C@H](C)CC[C@@H]1[C@@]24OO3`, the IC50 in the assay on HT-29, in the assay on MDA-MB-231, in the assay with A549, in the assay on NCI-H460 and in the assay with HeLa was 90 nM in each case.
With `C[C@H]1[C@@H](NC(=O)COCc2ccc(C(=O)/C=C/c3cccc(Cl)c3Cl)cc2)O[C@@H]2O[C@@]3(C)CC[C@H]4[C@H](C)CC[C@@H]1[C@@]24OO3`, the IC50 with HT-29, with MDA-MB-231, in the assay on A549, in the assay on NCI-H460 and in the assay with HeLa was 90 nM each time.
`C[C@H]1[C@H](NC(=O)COCc2ccc(C(=O)/C=C/c3ccc(F)c(F)c3)cc2)O[C@@H]2O[C@@]3(C)CC[C@H]4[C@H](C)CC[C@@H]1[C@@]24OO3`: the IC50 in the assay with HT-29, with MDA-MB-231, with A549, in the assay on NCI-H460 and with HeLa was 100 nM throughout.
Consider `C[C@H]1[C@H](NC(=O)COCc2ccc(C(=O)/C=C/c3ccc(Cl)cc3)cc2)O[C@@H]2O[C@@]3(C)CC[C@H]4[C@H](C)CC[C@@H]1[C@@]24OO3`, for which the IC50 in the assay with HT-29, with MDA-MB-231, with A549, with NCI-H460 and with HeLa was 100 nM throughout.
For `COc1ccc(/C=C/C(=O)c2ccc(COCC(=O)N[C@@H]3O[C@@H]4O[C@@]5(C)CC[C@H]6[C@H](C)CC[C@@H]([C@H]3C)[C@@]46OO5)cc2)c(OC)c1OC`, the concentration for half-maximal inhibition (IC50) in the assay on HT-29, with MDA-MB-231, in the assay on A549, in the assay on NCI-H460 and in the assay on HeLa was 100 nM in each case.
Turning to `C[C@H]1[C@@H](NC(=O)COCc2ccc(C(=O)/C=C/c3ccc(F)cc3)cc2)O[C@@H]2O[C@@]3(C)CC[C@H]4[C@H](C)CC[C@@H]1[C@@]24OO3`, the IC50 in the assay with HT-29, in the assay with MDA-MB-231, in the assay with A549, in the assay with NCI-H460 and with HeLa was 90 nM in each case.
With `C[C@H]1[C@H](NC(=O)COCc2ccc(C(=O)/C=C/c3ccc(F)cc3F)cc2)O[C@@H]2O[C@@]3(C)CC[C@H]4[C@H](C)CC[C@@H]1[C@@]24OO3`, the IC50 with HT-29, in the assay with MDA-MB-231, in the assay on A549, in the assay with NCI-H460 and in the assay with HeLa was 100 nM each time.
`C[C@H]1[C@@H](NC(=O)COCc2ccc(C(=O)/C=C/c3ccc(F)cc3F)cc2)O[C@@H]2O[C@@]3(C)CC[C@H]4[C@H](C)CC[C@@H]1[C@@]24OO3`: the IC50 with HT-29, in the assay on MDA-MB-231, in the assay on A549, in the assay with NCI-H460 and in the assay on HeLa was 90 nM each time.
In the case of `C[C@H]1[C@@H](NC(=O)COCc2ccc(C(=O)/C=C/c3cccc(OC(F)(F)F)c3)cc2)O[C@@H]2O[C@@]3(C)CC[C@H]4[C@H](C)CC[C@@H]1[C@@]24OO3`, the IC50 with HT-29, with MDA-MB-231, with A549, in the assay with NCI-H460 and with HeLa was 90 nM each time.
Regarding `COc1ccc(OC)c(/C=C/C(=O)c2ccc(COCC(=O)N[C@H]3O[C@@H]4O[C@@]5(C)CC[C@H]6[C@H](C)CC[C@@H]([C@H]3C)[C@@]46OO5)cc2)c1`, the 50% inhibitory concentration (IC50) in the assay on HT-29, in the assay on MDA-MB-231, with A549, with NCI-H460 and in the assay with HeLa was 90 nM in each case.
As to `C[C@H]1[C@H](NC(=O)COCc2ccc(C(=O)/C=C/c3cccc(OC(F)(F)F)c3)cc2)O[C@@H]2O[C@@]3(C)CC[C@H]4[C@H](C)CC[C@@H]1[C@@]24OO3`, the IC50 in the assay with HT-29, in the assay on MDA-MB-231, in the assay with A549, in the assay with NCI-H460 and with HeLa was 100 nM throughout.
As for `C[C@H]1[C@@H](NC(=O)COCc2ccc(C(=O)/C=C/c3ccccc3F)cc2)O[C@@H]2O[C@@]3(C)CC[C@H]4[C@H](C)CC[C@@H]1[C@@]24OO3`, the IC50 in the assay on HT-29, with MDA-MB-231, in the assay on A549, in the assay on NCI-H460 and in the assay with HeLa was 90 nM throughout.
As to `COc1ccc(/C=C/C(=O)c2ccc(COCC(=O)N[C@H]3O[C@@H]4O[C@@]5(C)CC[C@H]6[C@H](C)CC[C@@H]([C@H]3C)[C@@]46OO5)cc2)c(OC)c1OC`, the 50% inhibitory concentration (IC50) in the assay on HT-29, with MDA-MB-231, in the assay with A549, in the assay with NCI-H460 and with HeLa was 90 nM in each case.
As for `C[C@H]1[C@@H](NC(=O)COCc2ccc(C(=O)/C=C/c3ccc(Cl)cc3)cc2)O[C@@H]2O[C@@]3(C)CC[C@H]4[C@H](C)CC[C@@H]1[C@@]24OO3`, the IC50 with HT-29, in the assay on MDA-MB-231, with A549, in the assay on NCI-H460 and in the assay on HeLa was 90 nM throughout.
Consider `C[C@H]1[C@H](NC(=O)COCc2ccc(C(=O)/C=C/c3ccc(S(C)(=O)=O)cc3)cc2)O[C@@H]2O[C@@]3(C)CC[C@H]4[C@H](C)CC[C@@H]1[C@@]24OO3`, for which the IC50 with HT-29, in the assay with MDA-MB-231, in the assay with A549, in the assay on NCI-H460 and with HeLa was 100 nM throughout.
In the case of `C[C@H]1[C@H](NC(=O)COCc2ccc(C(=O)/C=C/c3ccc(F)cc3)cc2)O[C@@H]2O[C@@]3(C)CC[C@H]4[C@H](C)CC[C@@H]1[C@@]24OO3`, the 50% inhibitory concentration (IC50) in the assay on HT-29, in the assay with MDA-MB-231, in the assay on A549, in the assay on NCI-H460 and with HeLa was 100 nM each time.
As for `C[C@H]1[C@@H](NC(=O)COCc2ccc(C(=O)/C=C/c3ccc(S(C)(=O)=O)cc3)cc2)O[C@@H]2O[C@@]3(C)CC[C@H]4[C@H](C)CC[C@@H]1[C@@]24OO3`, the half-inhibitory concentration (IC50) in the assay with HT-29, in the assay with MDA-MB-231, in the assay with A549, in the assay with NCI-H460 and with HeLa was 90 nM each time.
`C[C@H]1[C@@H](NC(=O)COCc2ccc(C(=O)/C=C/c3ccc(OC(F)(F)F)cc3)cc2)O[C@@H]2O[C@@]3(C)CC[C@H]4[C@H](C)CC[C@@H]1[C@@]24OO3`: the IC50 with HT-29, in the assay with MDA-MB-231, in the assay on A549, in the assay with NCI-H460 and with HeLa was 90 nM each time.
